Results from publication PMC6701825, “Antiproliferative and Antimigratory Effects of a Novel YAP–TEAD Interaction Inhibitor Identified Using in Silico Molecular Docking” (Journal of Medicinal Chemistry, 2019).

Experiments:
HuVSMC = assay: Real-time IncuCyte scratch wound migration assay in HuVSMC; assay type: cell-based, human; details: HuVSMC, 0.25, 0.5, 2, and 10 μM
Description: (§1) Figure 9 Compound 3.1 inhibits TEAD target gene expression, cell proliferation, and cell migration in RaVSMCs. RaVSMCs stably transduced with TEAD-NLUC (A) or transiently transfected with CCN1-LUC or CTGF-LUC were treated with the indicated concentrations of compound 3.1 for 6 hr. Cell conditioned media (A) or cell lysates (B−C) were assayed for nanoluciferase or fire-fly luciferase activity, respectively. VSMC were treated with 60 μM compound 3.1 for 6 h (n = 3). Total RNA was analyzed for mRNA levels of TEAD-target genes (D) or constitutive housekeeping genes (E) by qRT-PCR. VSMC were treated with indicated concentrations of compound 3.1 for 16 hr (n = 4). Total cell lysates were analyzed for CCN1 protein expression by Western blotting (F). RaVSMCs (G) or HuVSMC (H) were treated with indicated concentrations of compound 3.1 for 18 h followed by labeling in 10 μM EdU for a further 6 h (n = 4). RaVSMCs (I) or HuVSMC (J) were treated with indicated concentrations of compound 3.1 and cell migration quantified using IncuCyte real time migration assay (n = 4).
Cell proliferation was measured using the Click-iT EdU 488 assay (Sigma-Aldrich). […] Fluorescent images of at least three fields of view per well were counted using ImageJ software. […] Relative wound confluence was calculated using the Cell Migration Image analysis module of the IncuCyte ZOOM software.

[1] = system: TEAD-independent GAL4 reporter vector; assay: TEAD-independent reporter vector basal activity (Supplement Figure 10A); assay type: cell-based; details: 6 hours
Text: TEAD proteins (TEAD1–4) display a high degree of sequence conservation in residues that create the hydrophobic pocket that is essential for YAP binding.[51] YAP proteins also display a high degree of conservation in residues that interact with this pocket.[51] We therefore tested whether CPD3.1 was able to inhibit YAP-induced activity of TEAD1, TEAD2, TEAD3, and TEAD4. To quantify the effect of CPD3.1 on the activity of each individual TEAD paralog, while excluding interference from endogenously expressed TEAD1–4 proteins, we expressed each TEAD paralog (TEAD1–4) fused to the yeast GAL4 DNA-binding domain. Cells were transfected with the GAL4–TEAD expression vector together with a secreted nanoluciferase reporter gene vector under control of a promoter containing five GAL4 DNA-binding elements. This system allows us to study the effect of CPD3.1 on the activity of each individual TEAD protein in isolation, without interference from endogenously expressed transcription factors. In addition, the cells were co-transfected with a YAP expression vector to activate the GAL4–TEAD fusion-dependent transcription (see Supplement Figure 9). Basal activities of TEAD1, TEAD2, TEAD3, and TEAD4 were inhibited by CPD3.1 (Figure 7A–D). This likely reflects the inhibition of TEAD activity driven by endogenous expression of YAP. […]

CCN1 protein = assay: Western blotting of CCN1 protein in VSMC lysates; assay type: cell-based; details: indicated concentrations, 16 hr
Description: as §1
Extracted samples were separated by 4–12% SDS-polyacrylamide gel electrophoresis (Bio-Rad) and transferred to poly(vinylidene difluoride) membranes (GE Healthcare). Membranes were blocked in 5% low-fat milk in 10 mM Tris pH 7.6, 150 mM NaCl, 0.2% Tween. […]

Cc1ccc2c(c1)c1c3n2CCNC3CCC1 (stereo not drawn) [CPD3.1]
cell migration (scratch wound) (HuVSMC): inhibited in a dose-dependent manner | basal activity of a TEAD-independent GAL4 reporter vector [1]: did not inhibit the basal activity | CCN1 protein levels (Western blot) (CCN1 protein): inhibited the expression of CCN1 protein levels
